Legend:
Tie-2 = target: T1, Tie-2 (Homo sapiens, UniProt Q02763); test: Tie-2 kinase assay; assay type: biochemical; settings: 10 μM ATP, 20 min
T1 construct: made in house; host or cells: Hi5 insect cells
Procedure: Recombinant Tie-2 protein was expressed in Hi5 insect cells and then purified. The kinase substrate used was the biotinylated peptide having the amino acid sequence biotin-EPKDDAYPLYSDFG, which was purchased from Biosynthan. Tie-2 [concentration in the mixture 5 ng/μl] was preincubated in the presence of 100 μM ATP in assay buffer [50 mM HEPES pH 7.0, 0.5 mM MgCl2, 1.0 mM dithiothreitol, 0.01% NP40, 1 tablet/2.5 ml complete protease inhibitor (from Roche)] at 22° C. for 20 min. The enzyme reaction [0.5 ng/μl Tie-2 in the test mixture, test volume 5 μl] then took place in the presence of various concentrations of test substances (0 μM, and 10 measurement points within the range 0.001-20 μM in duplicate) in assay buffer with 10 μM ATP, 1.0 μM substrate peptide biotin-EPKDDAYPLYSDFG, 1.0% dimethyl sulphoxide for 20 min. The reaction was stopped by adding 5 μl of an EDTA/detection solution [50 mM HEPES pH 7.5, 89 mM EDTA, 0.28% BSA, 0.2 μM streptavidin-XLent (from CisBio), 2 nM PT66-Eu (from PerkinElmer)]. The fluorescence emission at 620 nm and 665 nm after excitation with light of the wavelength 350 nm was measured in a Rubystar HTRF instrument from BMG Labsystems.
The measured data (ratio of emission 665 divided by emission 620 multiplied by 10 000) were normalized to 0% inhibition (enzyme reaction without inhibitor) and 100% inhibition (all assay components apart from enzyme). The IC50 values were determined by means of a 4-parameter fit using the company's own software.

Aurora-C = target: T2, Aurora-C (Homo sapiens, UniProt Q9UQB9); test: Aurora-C kinase assay; assay type: biochemical; settings: 3 μM ATP, 22° C., 90 min
T2 construct: made in house; host or cells: HEK293 (transiently transfected)
T2 sequence (Q9UQB9 1-309): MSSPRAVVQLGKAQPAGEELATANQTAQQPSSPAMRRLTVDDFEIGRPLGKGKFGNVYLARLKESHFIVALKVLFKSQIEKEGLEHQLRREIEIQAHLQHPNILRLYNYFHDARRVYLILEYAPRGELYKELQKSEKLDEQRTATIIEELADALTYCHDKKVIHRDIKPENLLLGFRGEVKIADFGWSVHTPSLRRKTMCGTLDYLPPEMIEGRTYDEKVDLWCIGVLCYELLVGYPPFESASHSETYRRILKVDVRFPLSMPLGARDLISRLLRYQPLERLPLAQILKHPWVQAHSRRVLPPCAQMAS
Procedure: Recombinant Aurora-C protein was expressed in transiently transfected HEK293 cells and then purified. The kinase substrate used was the biotinylated peptide having the amino acid sequence biotin-FMRLRRLSTKYRT, which was purchased from Jerini A G in Berlin.
Aurora-C [5 nM in the test mixture, test volume 5 μl] was incubated in the presence of various concentrations of test substances (0 μM and 10 measurement points within the range 0.001-20 μM in duplicate) in assay buffer [25 mM HEPES pH 7.4, 0.5 mM MnCl2, 0.1 mM Na ortho-vanadate, 2.0 mM dithiothreitol, 0.05% bovine serum albumin (BSA), 0.01% Triton X-100, 3 μM adenosine trisphosphate (ATP), 0.67 nCi/μl gama-P33-ATP, 2.0 μM substrate peptide biotin-FMRLRRLSTKYRT, 1.0% dimethyl sulphoxide] at 22° C. for 90 min. The reaction was stopped by adding 12.5 μl of an EDTA/detection solution [16 mM EDTA, 40 mM ATP, 0.08% Triton X-100, 4 mg/ml PVT streptavidin SPA beads (from Amersham)]. After incubation for 10 minutes, the SPA beads were pelleted by centrifugation at 1000×G for 10 minutes. Measurement took place in a PerkinElmer Topcount scintillation counter. The measured data were normalized to 0% inhibition (enzyme reaction without inhibitor) and 100% inhibition (enzyme reaction in the presence of 0.1 μM staurosporine (from Sigma)). The IC50 values were determined by means of a 4-parameter fit using the company's own software.

T1 sequence (Q02763 23-1124, species assumed): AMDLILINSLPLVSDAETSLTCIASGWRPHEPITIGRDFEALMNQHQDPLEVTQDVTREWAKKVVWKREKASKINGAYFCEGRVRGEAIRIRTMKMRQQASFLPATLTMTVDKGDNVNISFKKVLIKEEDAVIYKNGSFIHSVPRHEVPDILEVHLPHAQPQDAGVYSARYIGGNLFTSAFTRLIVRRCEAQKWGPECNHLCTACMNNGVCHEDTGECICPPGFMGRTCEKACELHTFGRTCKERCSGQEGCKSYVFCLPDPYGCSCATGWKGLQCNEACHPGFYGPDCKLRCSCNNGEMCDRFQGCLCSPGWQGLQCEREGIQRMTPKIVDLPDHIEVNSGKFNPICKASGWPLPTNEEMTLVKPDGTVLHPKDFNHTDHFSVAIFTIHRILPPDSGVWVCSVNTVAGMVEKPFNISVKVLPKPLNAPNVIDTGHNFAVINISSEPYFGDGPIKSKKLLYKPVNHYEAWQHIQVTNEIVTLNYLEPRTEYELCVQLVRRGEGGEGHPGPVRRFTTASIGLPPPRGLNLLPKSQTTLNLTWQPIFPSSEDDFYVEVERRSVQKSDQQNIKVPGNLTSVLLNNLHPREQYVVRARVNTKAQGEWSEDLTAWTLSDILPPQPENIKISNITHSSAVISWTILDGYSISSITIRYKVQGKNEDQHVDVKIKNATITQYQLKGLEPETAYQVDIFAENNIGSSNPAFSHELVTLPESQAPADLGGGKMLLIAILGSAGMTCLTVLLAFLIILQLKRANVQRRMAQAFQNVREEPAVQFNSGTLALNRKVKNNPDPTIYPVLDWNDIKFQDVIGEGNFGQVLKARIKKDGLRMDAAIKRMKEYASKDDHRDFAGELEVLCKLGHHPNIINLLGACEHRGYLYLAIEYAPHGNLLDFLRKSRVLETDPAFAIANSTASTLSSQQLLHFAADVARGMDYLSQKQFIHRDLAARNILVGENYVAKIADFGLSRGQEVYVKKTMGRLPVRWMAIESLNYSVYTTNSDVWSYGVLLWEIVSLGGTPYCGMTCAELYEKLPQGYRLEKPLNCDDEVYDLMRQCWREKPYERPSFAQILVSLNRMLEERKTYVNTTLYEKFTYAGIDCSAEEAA

Q: For `CCOC(=O)N=S(C)(=O)c1ccc2cc1NCCCCNc1nc(ncc1Br)N2` (racemic) [Example 1, (RS)—S-[1^5-Bromo-2,4,9-triaza-1(2,4)-pyrimidina-3(1,3)-benzenacyclononaphan-3^4-yl]-N-(ethoxycarbonyl)-S-methylsulphoximide], which IC50 (Tie-2) is on record?
A: 2920 nM

Q: And the IC50 (Aurora-C)?
A: 19 nM

Q: Which IC50 (Aurora-C) does the source give for `CCOC(=O)N=S(C)(=O)c1ccc2cc1NCCCCNc1nc(ncc1I)N2` (racemic) [Example 4, (RS)—N-(Ethoxycarbonyl)-S-[1^5-iodo-2,4,9-triaza-1(2,4)-pyrimidina-3(1,3)-benzenacyclononaphan-3^4-yl]-S-methylsulphoximide] here?
A: 24 nM

Q: `C[Si](C)(C)CCS(=O)(=O)N=S(C)(=O)c1ccc2cc1NCCCCNc1nc(ncc1Br)N2` (racemic) [Example 5, (RS)—S-[1^5-Bromo-2,4,9-triaza-1(2,4)-pyrimidina-3(1,3)-benzenacyclononaphan-3^4-yl]-S-methyl-N-[2-(trimethylsilyl)ethylsulphonyl]sulphoximide] was tested. Which IC50 (Aurora-C) did it give?
A: 88 nM

Q: With `CCNC(=O)N=S(C)(=O)c1ccc2cc1NCCCCNc1nc(ncc1Br)N2` (racemic) [Example 6, (RS)—S-[1^5-Bromo-2,4,9-triaza-1(2,4)-pyrimidina-3(1,3)-benzenacyclononaphan-3^4-yl]-N-(ethylcarbamoyl)-S-methylsulphoximide] as the molecule, how does the IC50 (Tie-2) read?
A: 1410 nM

Q: What about the IC50 (Aurora-C) of the same molecule?
A: 19 nM

Q: For `CCCS(=O)(=O)N=S(C)(=O)c1ccc2cc1NCCCCNc1nc(ncc1Br)N2` (racemic) [Example 7, (RS)—S-[1^5-Bromo-2,4,9-triaza-1(2,4)-pyrimidina-3(1,3)-benzenacyclononaphan-3^4-yl]-S-methyl-N-(propylsulphonyl)sulphoximide], which IC50 (Tie-2) is on record?
A: 1700 nM

Q: And the IC50 (Aurora-C)?
A: 34 nM

Q: What does the source list for `CCCOC(=O)N=S(C)(=O)c1ccc2cc1OCCCCNc1nc(ncc1Br)N2` (racemic) [Example 8, (RS)—S-[1^5-Bromo-4-oxa-2,9-diaza-1(2,4)-pyrimidina-3(1,3)-benzenacyclononaphan-3^4-yl]-S-methyl-N-(propoxycarbonyl)sulphoximide]?
A: IC50 (Tie-2): 17100 nM; IC50 (Aurora-C): 283 nM

Q: For `C[Si](C)(C)CCS(=O)(=O)N=S(C)(=O)c1ccc2cc1OCCCCNc1nc(ncc1Br)N2` (racemic) [Example 9, (RS)—S-[1^5-Bromo-4-oxa-2,9-diaza-1(2,4)-pyrimidina-3(1,3)-benzenacyclononaphan-3^4-yl]-S-methyl-N-[2-(trimethylsilyl)ethylsulphonyl]sulphoximide], which IC50 (Tie-2) is on record?
A: > 10000 nM

Q: What about the IC50 (Aurora-C) of the same molecule?
A: 95 nM

Q: With `CCOC(=O)N=S(C)(=O)c1ccc2cc1NCCCCNc1nc(ncc1Br)N2` (single isomer, unassigned) [Example 2] as the molecule, how does the IC50 (Aurora-C) read?
A: 13 nM

Q: How did the IC50 (Aurora-C) turn out when `CCOC(=O)N=S(C)(=O)c1ccc2cc1NCCCCNc1nc(ncc1Br)N2` (single isomer, unassigned) [Example 3] was run?
A: 69 nM
